Data on 16 compounds can be found in patent publication US4018778A, “Derivatives of 1-phenoxy-3-amino-propane-2-ol and process for their production” (Cassella Farbwerke Mainkur Aktiengesellschaft, priority 1972, dated 1977).

The test system of data set [1] is dp/dt (left ventricular blood pressure). The data set can be described thus: Intrinsic (inotropic) action on the dp/dt. The class given is in vivo, dogs. The conditions noted are these: number of - and + signs indicates strength of the effect.
Data set [2] deals with changes of the dp/dt max. after isoproterenol (left ventricular blood pressure). Put plainly: Antagonism of isoproterenol-induced change of left ventricular dp/dt max. in narcotised dogs (catheter tip manometer). The class given is in vivo. To be noted: Canis lupus familiaris, iv, isoproterenol 0.5·10^-6 gram/kg i.v., cumulative doses of test substance. The method, then: Isoproterenol (0.5 ^. 10^-^6 gram/kg i.v.) was injected at intervals of 15 minutes before and after increasing doses of the test substance. The changes of the dp/dt max. after isoproterenol were determined before and after the intravenous administration of the test substance. These values were used to calculate the ED50. The doses quoted in each case are the cumulative doses of the test substance.

Data set [3] has as its system heart (inotropic intrinsic action). The conditions noted are these: words, cited from earlier work.

With `CCOc1ccc(OCC(O)CNC(C)CC(O)c2cccnc2)cc1` (single isomer, unassigned; (-)) [(-)-1-(3'-β-pyridyl-3'-hydroxy-1'-methyl-propylamino)-3-(p-ethoxyphenoxy)-propan-2-ol, laevo-rotatory], in data set [1], the “Intrinsic action on the dp/dt” value stood at 0.
The term ED50 denotes the dose that gives a 50% effect, or the effect in half of the subjects. Read a high ED50 as weaker potency. In data set [2], `CCOc1ccccc1OCC(O)CNC(C)CC(O)c1cccnc1` (single isomer, unassigned; (-)) [(-)-1-β-Pyridyl-3-[3-(o-ethoxyphenoxy)-2-hydroxy-propylamino]-butan-1-ol (laevo-rotatory)] gave a 50% effective dose (ED50) of 0.0026 mg/kg.
In data set [2], `CCOc1ccccc1OCC(O)CNC(C)CC(O)c1cccnc1` (stereo not drawn) [1-(3'-β-Pyridyl-3'-hydroxy-1'-methyl-propylamino)-3-(o-ethoxyphenoxy)-propan-2-ol] registered an ED50 of 0.0151 mg/kg. The “Intrinsic action on the dp/dt” value in data set [1] turned out to be 0.
As to `CC(CC(O)c1cccnc1)NCC(O)COc1ccccc1-c1ccccc1` (stereo not drawn) [1-(3'-β-Pyridyl-3'-hydroxy-1'-methyl-propylamino)-3-(o-phenylphenoxy)-propan-2-ol], the “Intrinsic action on the dp/dt” value in data set [1] was found to be 0.
For the compound `COc1cccc(OCC(O)CNC(C)CC(O)c2cccnc2)c1` (stereo not drawn) [1-(3'-β-pyridyl-3'-hydroxy-1'-methyl-propylamino)-3-(m-methoxyphenoxy)-propan-2-ol], in data set [2], the ED50 is 0.012 mg/kg.
In data set [2], `Cc1cccc(OCC(O)CNC(C)CC(O)c2cccnc2)c1` (stereo not drawn) [1-(3'-β-pyridyl-3'-hydroxy-1'-methyl-propylamino)-3-(m-methylphenoxy)-propan-2-ol] yielded a median effective dose (ED50) of 0.0175 mg/kg.
The compound `C=CCOc1ccccc1OCC(O)CNC(C)CC(O)c1cccnc1` (stereo not drawn) [1-(3'-β-pyridyl-3'-hydroxy-1'-methyl-propylamino)-3-(o-allyloxyphenoxy)-propan-2-ol] yielded an ED50 in data set [2] of 0.008 mg/kg.
`C=CCc1ccccc1OCC(O)CNC(C)CC(O)c1cccnc1` (stereo not drawn) [1-(3'-β-pyridyl-3'-hydroxy-1'-methyl-propylamino)-3-(o-allylphenoxy)-propan-2-ol] showed an ED50 in data set [2] of 0.0178 mg/kg.
In turn, `CC(CC(O)c1cccnc1)NCC(O)COc1ccccc1Cl` (stereo not drawn) [1-(3'-β-pyridyl-3'-hydroxy-1'-methyl-propylamino)-3-(o-chlorophenoxy)-propan-2-ol] gave an ED50 in data set [2] of 0.0082 mg/kg. The “Intrinsic action on the dp/dt” value in data set [1] was found to be 0.
The compound `COc1ccccc1OCC(O)CNC(C)CC(O)c1cccnc1` (stereo not drawn) [1-(3'-β-pyridyl-3'-hydroxy-1'-methyl-propylamino)-3-(o-methoxyphenoxy)-propan-2-ol] came in with a median effective dose (ED50) in data set [2] of 0.006 mg/kg.
The compound `CC(=O)Nc1ccc(OCC(O)CNC(C)CC(O)c2cccnc2)cc1` (stereo not drawn) [1-(3'-β-pyridyl-3'-hydroxy-1'-methyl-propylamino)-3-(p-acetamino-phenoxy)-propan-2-ol] returned a 50% effective dose (ED50) in data set [2] of 0.0146 mg/kg.
The same measure, in the same setting: in the case of `CC(CC(O)c1cccnc1)NCC(O)COc1ccc(Cl)cc1` (stereo not drawn) [1-(3'-β-pyridyl-3'-hydroxy-1'-methyl-propylamino)-3-(p-chlorophenoxy)-propan-2-ol] it was 0.03 mg/kg.
Still for that read-out and setting: in the case of `CCOc1ccc(OCC(O)CNC(C)CC(O)c2cccnc2)cc1` (stereo not drawn) [1-(3'-β-pyridyl-3'-hydroxy-1'-methyl-propylamino)-3-(p-ethoxyphenoxy)-propan-2-ol] it was 0.0448 mg/kg.
In the case of `CCCCCOc1ccc(OCC(O)CNC(C)CC(O)c2cccnc2)cc1` (stereo not drawn) [1-(3'-β-pyridyl-3'-hydroxy-1'-methyl-propylamino)-3-(p-pentoxyphenoxy)-propan-2-ol], it took a dose of 0.0184 mg/kg to reach the 50% effect level in data set [2] (ED50). For the same compound, the “Intrinsic action on the dp/dt” value in data set [1] amounted to 0.
`CCCOc1ccc(OCC(O)CNC(C)CC(O)c2cccnc2)cc1` (stereo not drawn) [1-(3'-β-pyridyl-3'-hydroxy-1'-methyl-propylamino)-3-(p-propoxyphenoxy)-propan-2-ol] showed a 50% effective dose (ED50) in data set [2] of 0.0167 mg/kg.
Take `CC(C)NCC(O)COc1cccc2ccccc12` (stereo not drawn) [Propranolol]: it took a dose of 0.0561 mg/kg to reach the 50% effect level in data set [2] (ED50). Besides, the “inotropic intrinsic action (clinical practice)” value in data set [3] was “strongly negative-inotropic intrinsic action”. The cardiac insufficiency risk entry in data set [3] (clinical practice) is recorded as “capable of causing an acute cardiac insufficiency or liable to intensify an already existing cardiac insufficiency”.
